Laboratory results: patent US8546386B2, “Corrosion and microbial control in hydrocarbonaceous compositions” (Dow Global Technologies LLC, priority 2008, dated 2013)

Tests used:
Type in all cases: cell-based
[1] = test system: Hormoconis resinae ATCC#20495; test: Microbial testing in biodiesel fuel, plate count; details: no biocide
[2] = test system: Pseudomonas aeruginosa ATCC#33988; test: Microbial testing in biodiesel fuel, plate count; details: no biocide
[3] = test system: Hormoconis resinae ATCC#20495; test: Microbial testing in diesel fuel, plate count
[4] = test system: Pseudomonas aeruginosa ATCC#33988; test: Microbial testing in diesel fuel, plate count
[5] = test system: Yarrowia tropicalis ATCC#48138; test: Microbial testing in diesel fuel, plate count
[6] = amino alcohol 1500 ppm + FS 135 ppm, Day 0
[7] = amino alcohol 1500 ppm + FS 135 ppm, Wk 1
[8] = amino alcohol 1500 ppm + FS 135 ppm, Wk 2
[9] = amino alcohol 1500 ppm + FS 135 ppm, Wk 3
[10] = amino alcohol 1500 ppm + FS 135 ppm, Wk 4
[11] = amino alcohol 1500 ppm + FS 1000 ppm, Day 0
[12] = amino alcohol 1500 ppm + FS 1000 ppm, Wk 1
[13] = amino alcohol 1500 ppm + FS 1000 ppm, Wk 2
[14] = amino alcohol 1500 ppm + FS 1000 ppm, Wk 3
[15] = amino alcohol 1500 ppm + FS 1000 ppm, Wk 4
[16] = amino alcohol 1500 ppm, no biocide, Day 0
[17] = amino alcohol 1500 ppm, no biocide, Wk 1
[18] = amino alcohol 1500 ppm, no biocide, Wk 2
[19] = amino alcohol 1500 ppm, no biocide, Wk 3
[20] = amino alcohol 1500 ppm, no biocide, Wk 4
[21] = amino alcohol 3000 ppm + FS 135 ppm, Day 0
[22] = amino alcohol 3000 ppm + FS 135 ppm, Wk 1
[23] = amino alcohol 3000 ppm + FS 135 ppm, Wk 2
[24] = amino alcohol 3000 ppm + FS 135 ppm, Wk 3
[25] = amino alcohol 3000 ppm + FS 135 ppm, Wk 4
[26] = amino alcohol 3000 ppm + FS 1000 ppm, Day 0
[27] = amino alcohol 3000 ppm + FS 1000 ppm, Wk 1
[28] = amino alcohol 3000 ppm + FS 1000 ppm, Wk 2
[29] = amino alcohol 3000 ppm + FS 1000 ppm, Wk 3
[30] = amino alcohol 3000 ppm + FS 1000 ppm, Wk 4
[31] = amino alcohol 3000 ppm, no biocide, Day 0
[32] = amino alcohol 3000 ppm, no biocide, Wk 1
[33] = amino alcohol 3000 ppm, no biocide, Wk 2
[34] = amino alcohol 3000 ppm, no biocide, Wk 3
[35] = amino alcohol 3000 ppm, no biocide, Wk 4

With CCCCCCCC/C=C\CCCCCCCC(=O)O.OCCN(CCO)CCO [TEA/Oleic] the “Mold (H. resinae) count” value ([1]; additive 500 ppm, Week 1) was 8.20E+04 Mold/ml, the “Mold (H. resinae) count” value ([1]; additive 500 ppm, Week 2) was 3.70E+05 Mold/ml and the “Mold (H. resinae) count” value ([1]; additive 500 ppm, Week 3) was 4.30E+05 Mold/ml. For the same molecule, the “Mold (H. resinae) count” value ([1]; additive 500 ppm, Week 4) was 6.20E+05 Mold/ml, the “Mold (H. resinae) count” value ([1]; additive 1500 ppm, Week 1) was 3.70E+02 Mold/ml and the “Mold (H. resinae) count” value ([1]; additive 1500 ppm, Week 2) was 1.30E+04 Mold/ml. The “Mold (H. resinae) count” value ([1]; additive 1500 ppm, Week 3) was 2.00E+04 Mold/ml, the “Mold (H. resinae) count” value ([1]; additive 1500 ppm, Week 4) was 4.70E+03 Mold/ml and the “Bacteria (Ps. aeruginosa) count” value ([2]; additive 500 ppm, Week 1) was 7.30E+04 Bact/ml. For the same molecule, the “Bacteria (Ps. aeruginosa) count” value ([2]; additive 500 ppm, Week 2) was 5.00E+05 Bact/ml, the “Bacteria (Ps. aeruginosa) count” value ([2]; additive 500 ppm, Week 3) was 1.20E+06 Bact/ml and the “Bacteria (Ps. aeruginosa) count” value ([2]; additive 500 ppm, Week 4) was 1.10E+06 Bact/ml. For the same molecule, the “Bacteria (Ps. aeruginosa) count” value ([2]; additive 1500 ppm, Week 1) was 2.00E+03 Bact/ml, the “Bacteria (Ps. aeruginosa) count” value ([2]; additive 1500 ppm, Week 2) was 9.00E+04 Bact/ml and the “Bacteria (Ps. aeruginosa) count” value ([2]; additive 1500 ppm, Week 3) was 2.20E+05 Bact/ml. The “Bacteria (Ps. aeruginosa) count” value ([2]; additive 1500 ppm, Week 4) was 8.30E+04 Bact/ml.

CC(C)(N)CO [AMP, 2-amino-2-methyl-1-propanol] was tested, and the “H. resinae organism count” value [3, 6] was 5.3E5, the “H. resinae organism count” value [3, 7] was 6.7E4 and the “H. resinae organism count” value [3, 8] was 1.3E4. For the same molecule, the “H. resinae organism count” value [3, 9] was 5.8E3, the “H. resinae organism count” value [3, 10] was 4.7E3 and the “H. resinae organism count” value [3, 11] was 5.3E5. For the same molecule, the “H. resinae organism count” value [3, 12] was 9.2E2, the “H. resinae organism count” value [3, 13] was under 10 and the “H. resinae organism count” value [3, 14] was under 10. For the same molecule, the “H. resinae organism count” value [3, 15] was under 10, the “H. resinae organism count” value [3, 16] was 5.3E5 and the “H. resinae organism count” value [3, 17] was 2.0E5. For the same molecule, the “H. resinae organism count” value [3, 18] was 5.8E5, the “H. resinae organism count” value [3, 19] was 8.1E5 and the “H. resinae organism count” value [3, 20] was 7.2E5. For the same molecule, the “H. resinae organism count” value [3, 21] was 5.3E5, the “H. resinae organism count” value [3, 22] was 5.7E4 and the “H. resinae organism count” value [3, 23] was 8.6E3. The “H. resinae organism count” value [3, 24] was 7.6E3, the “H. resinae organism count” value [3, 25] was 5.8E3 and the “H. resinae organism count” value [3, 26] was 5.3E5. For the same molecule, the “H. resinae organism count” value [3, 27] was 7.0E3, the “H. resinae organism count” value [3, 28] was under 10 and the “H. resinae organism count” value [3, 29] was under 10. The “H. resinae organism count” value [3, 30] was under 10, the “H. resinae organism count” value [3, 31] was 5.3E5 and the “H. resinae organism count” value [3, 32] was 3.6E5. For the same molecule, the “H. resinae organism count” value [3, 33] was 7.3E5, the “H. resinae organism count” value [3, 34] was 1.1E6 and the “H. resinae organism count” value [3, 35] was 2.3E6. The “Ps. aeruginosa organism count” value [4, 6] was 3.7E6, the “Ps. aeruginosa organism count” value [4, 7] was 4.3E5 and the “Ps. aeruginosa organism count” value [4, 8] was 9.0E4. For the same molecule, the “Ps. aeruginosa organism count” value [4, 9] was 1.4E4, the “Ps. aeruginosa organism count” value [4, 10] was 8.2E3 and the “Ps. aeruginosa organism count” value [4, 11] was 3.7E6. The “Ps. aeruginosa organism count” value [4, 12] was 1.4E2, the “Ps. aeruginosa organism count” value [4, 13] was under 10 and the “Ps. aeruginosa organism count” value [4, 14] was under 10. The “Ps. aeruginosa organism count” value [4, 15] was under 10, the “Ps. aeruginosa organism count” value [4, 16] was 3.7E6 and the “Ps. aeruginosa organism count” value [4, 17] was 2.1E6. The “Ps. aeruginosa organism count” value [4, 18] was 5.0E6, the “Ps. aeruginosa organism count” value [4, 19] was 1.0E6 and the “Ps. aeruginosa organism count” value [4, 20] was 6.8E6. For the same molecule, the “Ps. aeruginosa organism count” value [4, 21] was 3.7E6, the “Ps. aeruginosa organism count” value [4, 22] was 7.0E5 and the “Ps. aeruginosa organism count” value [4, 23] was 6.8E4. The “Ps. aeruginosa organism count” value [4, 24] was 1.6E4, the “Ps. aeruginosa organism count” value [4, 25] was 1.1E4 and the “Ps. aeruginosa organism count” value [4, 26] was 3.7E6. The “Ps. aeruginosa organism count” value [4, 27] was under 10, the “Ps. aeruginosa organism count” value [4, 28] was under 10 and the “Ps. aeruginosa organism count” value [4, 29] was under 10. The “Ps. aeruginosa organism count” value [4, 30] was under 10, the “Ps. aeruginosa organism count” value [4, 31] was 3.7E6 and the “Ps. aeruginosa organism count” value [4, 32] was 8.6E5. The “Ps. aeruginosa organism count” value [4, 33] was 4.0E6, the “Ps. aeruginosa organism count” value [4, 34] was 7.8E6 and the “Ps. aeruginosa organism count” value [4, 35] was 7.2E6. The “Y. tropicalis organism count” value [5, 6] was 2.8E5, the “Y. tropicalis organism count” value [5, 7] was 8.2E4 and the “Y. tropicalis organism count” value [5, 8] was 5.6E4. The “Y. tropicalis organism count” value [5, 9] was 9.0E3, the “Y. tropicalis organism count” value [5, 10] was 5.9E3 and the “Y. tropicalis organism count” value [5, 11] was 2.8E5. The “Y. tropicalis organism count” value [5, 12] was 5.2E2, the “Y. tropicalis organism count” value [5, 13] was under 10 and the “Y. tropicalis organism count” value [5, 14] was under 10. The “Y. tropicalis organism count” value [5, 15] was under 10, the “Y. tropicalis organism count” value [5, 16] was 2.8E5 and the “Y. tropicalis organism count” value [5, 17] was 3.4E5. The “Y. tropicalis organism count” value [5, 18] was 6.2E5, the “Y. tropicalis organism count” value [5, 19] was 8.0E6 and the “Y. tropicalis organism count” value [5, 20] was 4.3E6. The “Y. tropicalis organism count” value [5, 21] was 2.8E5, the “Y. tropicalis organism count” value [5, 22] was 5.8E4 and the “Y. tropicalis organism count” value [5, 23] was 9.4E3. The “Y. tropicalis organism count” value [5, 24] was 4.8E3, the “Y. tropicalis organism count” value [5, 25] was 5.0E3 and the “Y. tropicalis organism count” value [5, 26] was 2.8E5. For the same molecule, the “Y. tropicalis organism count” value [5, 27] was 9.4E2, the “Y. tropicalis organism count” value [5, 28] was under 10 and the “Y. tropicalis organism count” value [5, 29] was under 10. The “Y. tropicalis organism count” value [5, 30] was under 10, the “Y. tropicalis organism count” value [5, 31] was 2.8E5 and the “Y. tropicalis organism count” value [5, 32] was 1.6E5. For the same molecule, the “Y. tropicalis organism count” value [5, 33] was 5.7E5, the “Y. tropicalis organism count” value [5, 34] was 6.8E5 and the “Y. tropicalis organism count” value [5, 35] was 2.0E6.
